Test results from ChEMBL document CHEMBL1201862, “PubChem BioAssay data set” (2004).
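Growth conditions: 96-well plates. Treatment: test compound, 48 hours, 5 concentrations. Analysis: linear interpolation between bracketing concentrations; unreached endpoints set to highest concentration. The concentration for 50% growth inhibition is given as GI50.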 Activity calls are given as the source filed them. Rule as the data show it: active = GI50 up to about 1.1 µM and inactive = higher.

Assays:
Test in all cases: NCI tumour cell line growth inhibition, 48 h
[1] = tested on: 786-0
[2] = tested on: BT-549
[3] = tested on: CAKI-1
[4] = tested on: COLO 205
[5] = tested on: DU-145
[6] = tested on: HOP-62
[7] = tested on: HT-29
[8] = tested on: Hs-578T
[9] = tested on: IGROV-1
[10] = tested on: LOX IMVI
[11] = tested on: MOLT-4
[12] = tested on: NCI-H460
[13] = tested on: PC-3
[14] = tested on: SF-268
[15] = tested on: SF-295
[16] = tested on: SF-539
[17] = tested on: SK-OV-3
[18] = tested on: SNB-75
[19] = tested on: SR
[20] = tested on: TK-10

SMILES | GI50 [1] | GI50 [2] | GI50 [3] | GI50 [4] | GI50 [5] | GI50 [6] | GI50 [7] | GI50 [8] | GI50 [9] | GI50 [10] | GI50 [11] | GI50 [12] | GI50 [13] | GI50 [14] | GI50 [15] | GI50 [16] | GI50 [17] | GI50 [18] | GI50 [19] | GI50 [20]
COC(=O)C1C(OC(=O)c2ccccc2)CC2CCC1N2C(N)=O (configuration not stated) | > 100 µM (inactive) | > 100 µM (inactive) | > 100 µM (inactive) | > 100 µM (inactive) | > 100 µM (inactive) | > 100 µM (inactive) | > 100 µM (inactive) | > 100 µM (inactive) | > 100 µM (inactive) | > 100 µM (inactive) | > 100 µM (inactive) | > 100 µM (inactive) | > 100 µM (inactive) | > 100 µM (inactive) | > 100 µM (inactive) | > 100 µM (inactive) | > 100 µM (inactive) | > 100 µM (inactive) | > 100 µM (inactive) | 
Cc1cc2nc(CC(C(F)(F)F)C(F)(F)F)oc2cc1C | 0.474 µM (active) | 0.452 µM (active) | 2.07 µM (inactive) | 1.54 µM (inactive) | 4.36 µM (inactive) | 3.48 µM (inactive) | 0.973 µM (active) | 1.83 µM (inactive) | 1.97 µM (inactive) | 0.209 µM (active) |  | 3.77 µM (inactive) | 1.96 µM (inactive) | 2.49 µM (inactive) | 4.76 µM (inactive) | 2.73 µM (inactive) | 14.1 µM (inactive) | 1.61 µM (inactive) | 0.0276 µM (active) | 5.21 µM (inactive)
CC(=O)Nc1ccc(Nc2nc(=O)[nH]c(=O)[nH]2)cc1 | > 100 µM (inactive) | > 100 µM (inactive) | > 100 µM (inactive) | > 100 µM (inactive) | > 100 µM (inactive) | > 100 µM (inactive) | > 100 µM (inactive) | > 100 µM (inactive) | > 100 µM (inactive) | > 100 µM (inactive) |  | > 100 µM (inactive) | > 100 µM (inactive) | > 100 µM (inactive) | > 100 µM (inactive) | > 100 µM (inactive) | > 100 µM (inactive) | > 100 µM (inactive) | > 100 µM (inactive) | > 100 µM (inactive)
Cc1cc(S(=O)(=O)NC2=Nc3cccc(F)c3CN2)c(S)cc1Cl | 47.5 µM (inactive) | > 100 µM (inactive) | > 100 µM (inactive) | > 100 µM (inactive) | 74.5 µM (inactive) |  |  | > 100 µM (inactive) | 36.2 µM (inactive) | 50.9 µM (inactive) | 49.3 µM (inactive) | 36.8 µM (inactive) | 56.2 µM (inactive) | 76.9 µM (inactive) | 30.1 µM (inactive) | 84.1 µM (inactive) |  | > 100 µM (inactive) | 48.5 µM (inactive) | > 100 µM (inactive)
COc1ccc(C(=O)/C=C/c2ccncc2)cc1OC | 11.4 µM (inactive) | 6.22 µM (inactive) | 15.7 µM (inactive) | 15.5 µM (inactive) | 17.7 µM (inactive) | 16.3 µM (inactive) | 8.93 µM (inactive) | 13.7 µM (inactive) | 12.9 µM (inactive) | 1.47 µM (inactive) | 8.32 µM (inactive) |  | 16.7 µM (inactive) | 13.7 µM (inactive) | 16.1 µM (inactive) | 10.3 µM (inactive) | 17.2 µM (inactive) | 13.5 µM (inactive) | 6.49 µM (inactive) | 16.4 µM (inactive)
CCCCc1cc2c(C)cc(=O)oc2c(O)c1O | 33.9 µM (inactive) | 14.6 µM (inactive) | 23.4 µM (inactive) | 25.8 µM (inactive) | 32.2 µM (inactive) | 23.3 µM (inactive) | 27.9 µM (inactive) | 22.9 µM (inactive) | 24.6 µM (inactive) | 20.5 µM (inactive) | 25.2 µM (inactive) | 22.6 µM (inactive) | 21.3 µM (inactive) | 38.8 µM (inactive) | 22.2 µM (inactive) | 21.8 µM (inactive) |  | 27.1 µM (inactive) | 18 µM (inactive) | 85.9 µM (inactive)
C=C1CCCC2[C@](C)(CC3=C(Cl)C(=O)C=C(OC)C3=O)C(C)CC[C@]12C (some centres not stated) | 1.85 µM (inactive) | 5 µM (inactive) | 3.39 µM (inactive) | 3.37 µM (inactive) | 8.04 µM (inactive) | 6.55 µM (inactive) | 2.51 µM (inactive) | 8.71 µM (inactive) | 1.9 µM (inactive) | 1.38 µM (inactive) | 0.745 µM (active) | 8.63 µM (inactive) | 1.58 µM (inactive) | 5.09 µM (inactive) | 7.41 µM (inactive) | 2.33 µM (inactive) | 20.7 µM (inactive) |  | 1.47 µM (inactive) | 4.34 µM (inactive)
Cc1cc2c(=O)[nH]nc(N)c2c(N)n1 | > 100 µM (inactive) | > 100 µM (inactive) | > 100 µM (inactive) | > 100 µM (inactive) | > 100 µM (inactive) | > 100 µM (inactive) | > 100 µM (inactive) | > 100 µM (inactive) | > 100 µM (inactive) | > 100 µM (inactive) | > 100 µM (inactive) | > 100 µM (inactive) | > 100 µM (inactive) | > 100 µM (inactive) | > 100 µM (inactive) |  | > 100 µM (inactive) |  | > 100 µM (inactive) | > 100 µM (inactive)
O=C1CC(=O)NC(NN2C(=O)/C(=C/C(=O)c3ccco3)N=C2c2ccccc2)=N1 | > 100 µM (inactive) | 36.6 µM (inactive) | > 100 µM (inactive) | > 100 µM (inactive) | > 100 µM (inactive) | > 100 µM (inactive) | > 100 µM (inactive) | 27.7 µM (inactive) | 43.3 µM (inactive) |  | 22.9 µM (inactive) | 30.3 µM (inactive) | 29.4 µM (inactive) | > 100 µM (inactive) | 94.2 µM (inactive) | 44.1 µM (inactive) | > 100 µM (inactive) | 22.2 µM (inactive) | 14.6 µM (inactive) | > 100 µM (inactive)
Cc1cn(C2CC(/[N+]([O-])=N\Nc3ccc([N+](=O)[O-])cc3)C(CO)O2)c(=O)[nH]c1=O (configuration not stated) | > 100 µM (inactive) | > 100 µM (inactive) | > 100 µM (inactive) | > 100 µM (inactive) | > 100 µM (inactive) | > 100 µM (inactive) | > 100 µM (inactive) | > 100 µM (inactive) | 22.5 µM (inactive) | > 100 µM (inactive) | 22.2 µM (inactive) | 94.2 µM (inactive) | > 100 µM (inactive) | > 100 µM (inactive) | > 100 µM (inactive) | > 100 µM (inactive) | > 100 µM (inactive) |  | 4.62 µM (inactive) | > 100 µM (inactive)
COC(=O)Nc1nc2cc(S(=O)(=O)n3nnc4ccccc43)ccc2[nH]1 | 40.2 µM (inactive) | 17.6 µM (inactive) | 54.2 µM (inactive) | > 100 µM (inactive) | > 100 µM (inactive) | 15.8 µM (inactive) | > 100 µM (inactive) | 21.3 µM (inactive) | 31.3 µM (inactive) | > 100 µM (inactive) | > 100 µM (inactive) | > 100 µM (inactive) | 35 µM (inactive) | 21.5 µM (inactive) | 21.4 µM (inactive) | 10.2 µM (inactive) | 17.1 µM (inactive) | 6.62 µM (inactive) | 75.2 µM (inactive) | 
CCOC(=O)c1ccc(C(=O)C(C(C)=O)C(=O)OC(C)(C)C)n1C (configuration not stated) | > 100 µM (inactive) | > 100 µM (inactive) | > 100 µM (inactive) | > 100 µM (inactive) | > 100 µM (inactive) | > 100 µM (inactive) | > 100 µM (inactive) | > 100 µM (inactive) | > 100 µM (inactive) | > 100 µM (inactive) | 67.5 µM (inactive) | > 100 µM (inactive) | > 100 µM (inactive) | > 100 µM (inactive) | > 100 µM (inactive) |  | > 100 µM (inactive) | 78.5 µM (inactive) | 57.4 µM (inactive) | > 100 µM (inactive)
CC(C)C[C@H](NC(=O)[C@H](CCc1ccccc1)NC(=O)c1ccc2ccccc2n1)B(O)O | < 0.0225 µM (active) | < 0.01 µM (active) | < 0.0194 µM (active) | 0.043 µM (active) | 0.0752 µM (active) | 0.176 µM (active) | < 0.0113 µM (active) | 0.0245 µM (active) | 0.0705 µM (active) | 0.0144 µM (active) | < 0.01 µM (active) | 0.394 µM (active) | 0.0731 µM (active) | 0.0571 µM (active) | 0.053 µM (active) | < 0.01 µM (active) |  | 0.0302 µM (active) | < 0.0158 µM (active) | < 0.01 µM (active)
CCCCOC(=O)Nc1ccc(S(=O)(=O)Nc2ccccc2Cl)cc1 | 21.5 µM (inactive) | 22.5 µM (inactive) | 19.5 µM (inactive) | 20.7 µM (inactive) | 30.3 µM (inactive) | 21.7 µM (inactive) | 21 µM (inactive) | 21.5 µM (inactive) | 21.7 µM (inactive) | 18.1 µM (inactive) | 12.6 µM (inactive) | 18.2 µM (inactive) | 24.9 µM (inactive) | 16.9 µM (inactive) | 17.3 µM (inactive) | 17.6 µM (inactive) | 16.8 µM (inactive) |  | 4.04 µM (inactive) | 21.6 µM (inactive)
COC(=O)C1=C(C)NC(C)=C(C(=O)OC)C1c1ccccc1NO | > 100 µM (inactive) | > 100 µM (inactive) | > 100 µM (inactive) | > 100 µM (inactive) | > 100 µM (inactive) | > 100 µM (inactive) | > 100 µM (inactive) | > 100 µM (inactive) | > 100 µM (inactive) | 40 µM (inactive) | 27.4 µM (inactive) | > 100 µM (inactive) | > 100 µM (inactive) | > 100 µM (inactive) | > 100 µM (inactive) | > 100 µM (inactive) | > 100 µM (inactive) |  | 28.4 µM (inactive) | > 100 µM (inactive)
